{"source": "patent US20230092005A1", "about": "“COMPOSITIONS AND METHODS FOR TREATING CANCER AND TUMOR” (OBLATO, INC., priority 2020, published 2023)", "key": {"[1]": {"test": "Solubility in water", "type": "physicochemical", "settings": "free acid", "experimental": "In certain embodiments, the 2,4-ds-PBN can be prepared by a two-step reaction sequence. For example, tertiary butyl […] (2-methyl-2-nitropropane) can be converted to the corresponding n-hydroxylamine using a suitable catalyst such as an activated zinc/acetic acid catalyst or an aluminum/mercury amalgam catalyst. This reaction can be carried out in about 0.5 to 12 hours and especially about 2 to 6 hours or so at a temperature of about 15-100° C. in a liquid reaction medium such as alcohol/water mixture in the case of the zinc catalyst or an ether/water mixture in the case of the aluminum amalgam catalyst. The freshly formed hydroxylamine can be reacted with 4-formyl-1,3-benzenedisulfonic acid, with a slight excess of the amine being used. This reaction can be carried out at similar temperature conditions. This reaction can be completed in from about 10 to about 24 hours. The formed material through the two reactions can be the free acid and be characterized by a molecular weight of 337.3 g/mole. In some embodiments, the formed material can be a white powdery material that decomposes upon heating. In non-limiting embodiments, the formed material can be characterized by solubility in water of greater than 1 gram/ml and a^1H NMR spectrum in D2O of 8.048 ppm (dd, 8.4, 1.7 Hz); 8.836 ppm (d, 8.4 Hz); 8.839 ppm (d, 1.7 Hz); 8.774 ppm (s)."}, "[2]": {"test_system": "human A549 lung cancer xenografts", "test": "Anti-cancer efficacy in nude mice carrying human A549 lung cancer xenografts (tumor volume, tumor weight, growth inhibition rate)", "type": "in vivo, BALB/c Nude mouse", "settings": "for Tumor volume (mean): G5, 2 mg/kg I.P. once a week", "experimental": "The anti-cancer efficacy of OKN-007 was assessed after oral administration in nude mice carrying human A549 lung cancer xenografts implanted subcutaneously in the flank. Human lung cancer cell line, A549 was used. […] The frozen cells were thawed in a water bath. Cells were placed in a tube containing the medium and centrifuged (1,000 rpm, 5 minutes) to discard the supernatant. After re-suspending with the culture medium, cells were placed in a cell culture flask and incubated in a 5% CO2 incubator at 37° C. Cells were sub-cultured at a ratio of 1:5 when grown with confluency of 70-80% in the culture container. Cells cultured on the day of cell line transplantation were centrifuged (1,000 rpm, 5 minutes) to discard the supernatant and to make cell suspension with D-PB S. Then, the cell suspension was mixed with Matrigel at a ratio of 1:1 (5×10^7 cells/mL). BALB/c Nude mouse, [NT]-Foxnlnu/CrlOri, SPF was used. Sex, number, age, and body weight range of animals at receipt: The mice (65 mice) were male, 5 weeks old, and had about 14.5-19.6 g weight at the receipt. Cell transplantation: After the quarantine-acclimation period, the body weight measurement and cell transplantation in healthy animals were performed. […] Prepared cell (1×10^7 cells/0.2 mL) suspension was injected subcutaneously into the right flank with disposable syringes. […] Group assignment: After transplanting cells, each tumor size was monitored for 65 animals. When tumor volume reached within 87-112 mm^3, 50 animals were assigned to the respective groups with an average tumor volume of about 99 mm^3. Based on the tumor volume, animals were selected and randomly distributed into 5 groups (10 animals/group). Dosing Route: Oral administration. The route of administration was oral because the clinical application of the test substance is oral. Method and frequency of administration: For negative control and test substance, oral administration was performed once a day for 4 weeks for a total of 28 times using a disposable syringe. For positive control, intraperitoneal administration was performed once a week for 4 weeks for a total of 4 times using a disposable syringe. Dosing Route: The dose levels of the test substance were selected at 150, 300, and 600 mg/kg. The dose level of the positive substance was selected at 2 mg/kg. The dose volume was selected at 10 mL/kg for all groups, and the individual dose was calculated based on the bodyweight of animals just prior to dosing. Measurement of tumor volume: The largest diameter (a) and the smallest diameter (b) of each tumor were measured using calipers twice a week during the observation period. The tumor volume (TV) was calculated twice a week according to the following formula: TV (mm^3)=(a (mm)×b^2 (mm^2))/2. The volume of a tumor before administration to each animal was set to the value measured at the time of group assignment. Tumor removal and measurement of body weight: After the observation period, animals were anesthetized by inhalation of isoflurane. After the tumor was extracted, the weight of the removed tumor was recorded. The tumor growth inhibition rate (IR) was calculated using the following formula: IR (%)=(1-T/C)×100, where T is a mean tumor weight in the test substance group, and positive substance group, and C is a mean tumor weight in the negative control group."}, "[3]": {"test_system": "human A549 lung cancer xenografts", "test": "TUNEL staining of extracted A549 xenograft tumors (apoptosis counting and grading)", "type": "in vivo, BALB/c Nude mouse", "settings": "for Apoptosis counting No. (group mean ± S.D.): TUNEL positive cells per 1 mm^2; for Number of apoptotic cells in the tumor compared to the negative control group (G1): G5, 2 mg/kg, TUNEL", "from_the_text": "Histopathological test: The extracted tumors were fixed in 10% neutral buffered formalin solution (10% neutral buffered formalin). After sectioning the tumors to a certain thickness (about 3 mm), those were subjected to the general preparation procedure, embedded in paraffin, cut into 4 to 5 μm size, and tissue sections were stained with Hematoxylin and Eosin (H&E) and TUNEL. IHC (Immunohistochemistry) slides, cut into 4 to 5 μm size, were produced and sent to the sponsor (Negative Control Group (G1), Test substance 2 (G3, Animal ID Nos.: 1301, 1302, 1303, 1307, 1310), Test substance 3 (G4, Animal ID Nos.: 1401, 1402, 1404, 1408, 1409)). Determination of TUNEL staining results: After histological examination of the entire cross-section of the tumor for grading (±, +, ++, +++, ++++) of apoptosis, the nucleated brown stained cells were read as […] was counted. The apoptosis of the tumor was determined by the number of positive cells per […] (1 mm^2). The apoptosis of the tumor was determined by calculating the average number of positive cells and graded into the corresponding severity. The number of positive cells in which apoptosis occurred was determined by counting the number of positive cells per unit area (1 mm^2). Histopathological test (Table 7, FIGS. 7-11): The extracted fixed tumor was cut to a certain thickness (about 3 mm), then subjected to general tissue treatment, paraffin-embedded to produce blocks, and tissue sections of 4 to 5 μm in size were prepared. Then, Hematoxylin & Eosin (H&E) staining and TUNEL staining were performed."}, "[4]": {"test_system": "human A549 lung cancer xenografts", "test": "Hematoxylin & Eosin (H&E) staining of extracted A549 xenograft tumors (necrosis grading)", "type": "in vivo, BALB/c Nude mouse", "from_the_text": "Histopathological test: The extracted tumors were fixed in 10% neutral buffered formalin solution (10% neutral buffered formalin). After sectioning the tumors to a certain thickness (about 3 mm), those were subjected to the general preparation procedure, embedded in paraffin, cut into 4 to 5 μm size, and tissue sections were stained with Hematoxylin and Eosin (H&E) and TUNEL. IHC (Immunohistochemistry) slides, cut into 4 to 5 μm size, were produced and sent to the sponsor (Negative Control Group (G1), Test substance 2 (G3, Animal ID Nos.: 1301, 1302, 1303, 1307, 1310), Test substance 3 (G4, Animal ID Nos.: 1401, 1402, 1404, 1408, 1409)). Determination of Hematoxylin & Eosin (H&E) staining results: Necrosis of tumors was assessed by grading (±, +, ++, +++, ++++) the extent of necrosis in the whole section of the tumor. Necrosis was evaluated by morphological changes such as collapse or disappearance of the nucleus and eosinophilic change of cytoplasm. The extent of tumor necrosis was determined by the percentage of the following necrosis area. Histopathological test (Table 7, FIGS. 7-11): The extracted fixed tumor was cut to a certain thickness (about 3 mm), then subjected to general tissue treatment, paraffin-embedded to produce blocks, and tissue sections of 4 to 5 μm in size were prepared. Then, Hematoxylin & Eosin (H&E) staining and TUNEL staining were performed."}}, "data": [{"smiles": "CC(C)(C)/[N+]([O-])=C\\c1ccc(S(=O)(=O)O)cc1S(=O)(=O)O", "note": "[2,4-ds-PBN, 2,4-disulfonyl a-phenyl tert-butyl nitrone]", "values": [{"measurement": "solubility", "setting": "[1]", "result": "> 1000", "unit": "mg/mL"}]}, {"smiles": "N.N.[Cl][Pt][Cl]", "note": "[cisplatin, Cis-Diammineplatinum (II) dichloride, reference compound]", "values": [{"measurement": "Tumor weights (mean)", "setting": "[2]; G5, 2 mg/kg I.P. once a week for 4 weeks, tumors weighed at day 29", "result": 0.37, "unit": "g"}, {"measurement": "Tumor volume (mean)", "setting": "[2]; day 1 (before administration)", "result": 99, "unit": "mm^3"}, {"measurement": "Tumor volume (mean)", "setting": "[2]; day 5 after administration", "result": 152, "unit": "mm^3"}, {"measurement": "Tumor volume (mean)", "setting": "[2]; day 8 after administration", "result": 171, "unit": "mm^3"}, {"measurement": "Tumor volume (mean)", "setting": "[2]; day 12 after administration", "result": 176, "unit": "mm^3"}, {"measurement": "Tumor volume (mean)", "setting": "[2]; day 15 after administration", "result": 199, "unit": "mm^3"}, {"measurement": "Tumor volume (mean)", "setting": "[2]; day 19 after administration", "result": 250, "unit": "mm^3"}, {"measurement": "Tumor volume (mean)", "setting": "[2]; day 22 after administration", "result": 314, "unit": "mm^3"}, {"measurement": "Tumor volume (mean)", "setting": "[2]; day 26 after administration", "result": 385, "unit": "mm^3"}, {"measurement": "Tumor volume (mean)", "setting": "[2]; day 29 after administration", "result": 481, "unit": "mm^3"}, {"measurement": "Tumor growth inhibition rate (IR)", "setting": "[2]; G5, 2 mg/kg I.P., IR=(1-T/C)x100 from mean tumor weights, day 29", "result": 59.8, "unit": "%"}, {"measurement": "Tumor volume and size compared to the negative control", "setting": "[2]; G5, 2 mg/kg, end of the observation period", "result": "statistically significant decrease in tumor volume and size"}, {"measurement": "Apoptosis grade + : number of animals", "setting": "[3]; G5, 2 mg/kg I.P., N=10", "result": 2}, {"measurement": "Apoptosis grade ++ (moderate): number of animals", "setting": "[3]; G5, 2 mg/kg I.P., N=10", "result": 0}, {"measurement": "Apoptosis grade +++ (marked): number of animals", "setting": "[3]; G5, 2 mg/kg I.P., N=10", "result": 0}, {"measurement": "Apoptosis grade ++++ (severe): number of animals", "setting": "[3]; G5, 2 mg/kg I.P., N=10", "result": 0}, {"measurement": "Apoptosis grade ± (minimal): number of animals", "setting": "[3]; G5, 2 mg/kg I.P., N=10", "result": 8}, {"measurement": "Apoptosis counting No. (group mean ± S.D.)", "setting": "[3]; G5, 2 mg/kg I.P.", "result": "87.5 ± 50.6", "unit": "No./mm^2"}, {"measurement": "Apoptosis counting No. (group mean ± S.D.)", "setting": "[3]; G5, 2 mg/kg I.P., listed as Cisplatin", "result": "87.5±50.6", "unit": "No./mm^2"}, {"measurement": "Number of apoptotic cells in the tumor compared to the negative control group (G1)", "setting": "[3]", "result": "significant increase in the number of apoptotic cells"}, {"measurement": "Number of apoptotic cells in the tumor compared to the negative control group (G1)", "setting": "[3]; listed as Cisplatin", "result": "no statistically significant difference"}, {"measurement": "Necrosis grade + : number of animals", "setting": "[4]; G5, 2 mg/kg I.P., N=10", "result": 2}, {"measurement": "Necrosis grade ++ (moderate): number of animals", "setting": "[4]; G5, 2 mg/kg I.P., N=10", "result": 2}, {"measurement": "Necrosis grade +++ (marked): number of animals", "setting": "[4]; G5, 2 mg/kg I.P., N=10", "result": 0}, {"measurement": "Necrosis grade ++++ (severe): number of animals", "setting": "[4]; G5, 2 mg/kg I.P., N=10", "result": 0}, {"measurement": "Necrosis grade ± (minimal): number of animals", "setting": "[4]; G5, 2 mg/kg I.P., N=10", "result": 6}, {"measurement": "Severity of necrosis compared to the negative control group (G1)", "setting": "[4]; G5, 2 mg/kg, H&E", "result": "does not significantly different"}]}]}
